Experimental data reported in US11400072B2, “Methods for the treatment of nonalcoholic fatty liver disease and/or lipodystrophy” (Coherus Biosciences, Inc., priority 2015, dated 2022).

Tested on: obese patients with NASH
Assay: 48 week double blind, placebo controlled, randomized, parallel group study of INT131 on hepatic histology of obese patients with NASH
Assay type: in vivo, human
Details: subjects receiving either 1.25 or 2 mg of INT131 once per day
Description: A 48 week double blind, placebo controlled, randomized, parallel group study will be conducted to evaluate the effect of INT131 on hepatic histology of obese patients with NASH. Specifically, at least 225 subjects are chosen that fit the following criteria: (1) age 18 to 75 years old; (2) body mass index (BMI) greater than 25 kg/m^2 and less than 40 kg/m^2; (3) NAFLD fibrosis score greater than or equal to 1.0 and less than 4.0; (4) average daily alcohol consumption of 10 g/day or less; (5) NAFLD activity score (“NAS”) of 3 or greater; (6) histologically proven steatohepatitis on a diagnostic liver biopsy performed within 6 months of randomization, confirmed central laboratory reading of slides (steatosis >5% lobular inflammation, any amount of ballooning); (7) women who meet the following criteria: women of childbearing potential with a negative urine pregnancy test at Screening who agree to use 1 or more approved methods of birth control during the study. Approved methods of birth control are: hormonal contraception, intrauterine device, diaphragm plus spermicide, female condom plus spermicide. […]

[1] = week 0 compared to week 48, statistically significant versus placebo group

## O=S(=O)(Nc1cc(Cl)c(Oc2cnc3ccccc3c2)c(Cl)c1)c1ccc(Cl)cc1Cl [INT131, 2,4-Dichloro-N-[3,5-dichloro-4-(3-quinolinyloxy)phenyl]benzenesulfonamide]
  liver function test(s): improvement
  most if not all other metabolic parameters outlined above: improvement
[1]
  NAS (NAFLD activity score): reduction
  ballooning grade: reduction
  fibrosis stage: reduction
  portal and lobular inflammation grade: reduction
  steatosis grade: reduction
